SMILES strings stand for the structures. Where two headings read alike, the source gives them in different places. A value given as a limit tells only on which side of the number the result lay.

Usually Ki stands for a dissociation constant, usually derived from enzyme kinetics or from competition with a known ligand. The koff is the rate constant with which the complex falls apart. One may read the kon as the rate constant with which the complex forms.

The conditions of data set [1]: 15-min incubation with rat liver microsomes; cited from earlier work. For orientation: Liver microsomes are a subcellular fraction often used to study metabolism.
The next data set deals with T1, Human recombinant MMP-2 (Homo sapiens, UniProt P08253).
T1 sequence (P08253 110-660): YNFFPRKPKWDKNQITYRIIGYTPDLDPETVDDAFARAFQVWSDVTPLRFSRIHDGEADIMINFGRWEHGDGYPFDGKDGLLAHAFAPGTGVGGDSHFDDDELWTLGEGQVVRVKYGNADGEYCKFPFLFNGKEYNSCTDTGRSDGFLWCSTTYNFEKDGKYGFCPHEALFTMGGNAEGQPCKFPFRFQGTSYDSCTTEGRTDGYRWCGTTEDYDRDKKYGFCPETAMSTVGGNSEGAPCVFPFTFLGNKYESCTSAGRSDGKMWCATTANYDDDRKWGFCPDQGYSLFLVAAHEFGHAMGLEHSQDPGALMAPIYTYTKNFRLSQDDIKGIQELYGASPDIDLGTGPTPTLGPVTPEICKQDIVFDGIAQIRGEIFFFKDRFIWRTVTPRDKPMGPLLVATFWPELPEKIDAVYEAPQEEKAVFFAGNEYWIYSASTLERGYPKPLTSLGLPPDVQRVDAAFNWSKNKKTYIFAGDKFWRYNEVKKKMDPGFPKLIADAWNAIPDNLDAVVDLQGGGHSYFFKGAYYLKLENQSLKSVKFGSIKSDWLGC
The data set is described as follows: Inhibition of MMP-2, fluorogenic substrate hydrolysis. Type of data set: biochemical.

In another data set the target is Human recombinant MMP-9 (Homo sapiens, UniProt P14780). The data set is described as follows: Inhibition of MMP-9, fluorogenic substrate hydrolysis. In kind it is biochemical.
Data set [2] has as its target catalytic domain of human recombinant MMP-14 (MT1-MMP) (Homo sapiens, UniProt P50281). The data set is described as follows: Inhibition of MMP-14 catalytic domain, fluorogenic substrate hydrolysis. Type of data set: biochemical.
Data set [3] concerns the target T2, catalytic domain of human recombinant MMP-1 (Homo sapiens, UniProt P03956).
T2 sequence (P03956 100-269 limits assumed): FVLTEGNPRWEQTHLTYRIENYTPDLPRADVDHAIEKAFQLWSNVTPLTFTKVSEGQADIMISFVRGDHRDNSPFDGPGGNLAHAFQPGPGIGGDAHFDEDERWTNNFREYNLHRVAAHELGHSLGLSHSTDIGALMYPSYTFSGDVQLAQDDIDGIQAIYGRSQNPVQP
The data set is described as follows: Inhibition of MMP-1 catalytic domain, fluorogenic substrate hydrolysis. In kind it is biochemical.

The target of data set [4] is catalytic domain of human recombinant MMP-3 (Homo sapiens, UniProt P08254). The data set is described as follows: Inhibition of MMP-3 catalytic domain, fluorogenic substrate hydrolysis. In kind it is biochemical.
Data set [5] addresses T3, Human recombinant active MMP-7 (Homo sapiens, UniProt P09237).
T3 sequence (P09237 95-267): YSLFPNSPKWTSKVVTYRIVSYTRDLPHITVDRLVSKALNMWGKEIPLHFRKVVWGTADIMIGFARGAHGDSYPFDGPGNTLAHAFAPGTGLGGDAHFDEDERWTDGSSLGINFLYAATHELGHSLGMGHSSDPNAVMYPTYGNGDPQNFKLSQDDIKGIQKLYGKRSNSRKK
The data set is described as follows: Inhibition of MMP-7, fluorogenic substrate hydrolysis. Type of data set: biochemical.

A short description of data set [6]: In vitro metabolism, incubation with rat liver microsomes. Type of data set: in vitro ADME. Particulars: more metabolically stable than SB-3CT.

Sequence of Human recombinant MMP-9 (P14780 94-707): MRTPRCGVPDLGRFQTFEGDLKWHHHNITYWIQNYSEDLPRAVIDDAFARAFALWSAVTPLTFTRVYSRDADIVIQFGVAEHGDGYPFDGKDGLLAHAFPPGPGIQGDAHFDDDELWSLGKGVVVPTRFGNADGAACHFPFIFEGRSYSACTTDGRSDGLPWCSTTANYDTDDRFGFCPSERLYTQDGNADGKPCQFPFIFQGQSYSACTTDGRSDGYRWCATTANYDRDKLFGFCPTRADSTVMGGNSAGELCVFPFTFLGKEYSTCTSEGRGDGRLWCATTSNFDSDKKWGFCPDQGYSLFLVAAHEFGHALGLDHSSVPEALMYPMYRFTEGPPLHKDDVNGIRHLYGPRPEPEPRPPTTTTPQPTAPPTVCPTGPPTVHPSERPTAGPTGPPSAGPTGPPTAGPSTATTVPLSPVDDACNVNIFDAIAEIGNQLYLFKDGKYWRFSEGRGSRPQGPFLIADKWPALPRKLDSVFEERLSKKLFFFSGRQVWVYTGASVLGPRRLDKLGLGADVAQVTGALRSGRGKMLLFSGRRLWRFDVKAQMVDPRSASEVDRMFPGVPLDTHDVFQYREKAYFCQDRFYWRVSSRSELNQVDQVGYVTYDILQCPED
Sequence of catalytic domain of human recombinant MMP-3 (P08254 100-272 limits assumed): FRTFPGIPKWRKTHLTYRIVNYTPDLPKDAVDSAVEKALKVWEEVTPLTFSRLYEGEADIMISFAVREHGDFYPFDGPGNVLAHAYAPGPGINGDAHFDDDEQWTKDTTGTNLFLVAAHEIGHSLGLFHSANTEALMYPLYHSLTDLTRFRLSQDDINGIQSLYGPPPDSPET

`O=S(=O)(CC1CS1)c1ccc(Oc2ccccc2)cc1` (centres unmarked) [Compound 1, 2-(4-phenoxyphenylsulfonylmethyl)thiirane]: the compound remaining in data set [1] is recorded as 0.5%.

Take `C[C@@H]([C@@H]1CS1)S(=O)(=O)c1ccc(Oc2ccccc2)cc1` [Compound 5a, (2S)-2-(1S-(4-Phenoxyphenylsulfonyl)ethyl)thiirane]: the inhibition constant Ki at Human recombinant MMP-2 (MMP-2, linear competitive inhibitors) is 7.2 ± 0.1 µM.

`C[C@@H]([C@H]1CS1)S(=O)(=O)c1ccc(Oc2ccccc2)cc1` [Compound 5b, (2R)-2-(1S-(4-Phenoxyphenylsulfonyl)ethyl)thiirane]: the inhibitory constant (Ki) is 0.18 ± 0.03 µM at Human recombinant MMP-2 (MMP-2); 3.5 ± 0.2 µM on Human recombinant MMP-9 (MMP-9); 0.74 ± 0.17 µM in data set [2] (MMP-14cat); over 60 µM in data set [3] (read-out: Inhibition (Ki column), MMP-1cat, up to 60 μM); over 60 µM in data set [5] (read-out: Inhibition (Ki column), MMP-7, up to 60 μM). Besides, the “10^–3 kon” value at Human recombinant MMP-2 (MMP-2, slow-binding onset rate constant, values printed as 10^–3 kon) is listed as 3.3 ± 0.1 M/second; at Human recombinant MMP-9 (MMP-9, values printed as 10^–3 kon), 0.26 ± 0.01 M/second; in data set [2] (MMP-14cat, values printed as 10^–3 kon) it was 1.2 ± 0.1 M/second. Moreover, the “10^4 koff” value on Human recombinant MMP-2 (MMP-2, values printed as 10^4 koff) was 5.9 ± 1.0 second; on Human recombinant MMP-9 (MMP-9, values printed as 10^4 koff), 9.0 ± 0.6 second; in data set [2] (MMP-14cat, values printed as 10^4 koff) it was 8.9 ± 2.1 second. In addition, the “inhibition at 60 µM” value in data set [4] (MMP-3cat, 60 μM inhibitor) turned out to be 8% Inhibition at 60 μM. In addition, the “Metabolic stability relative to SB-3CT” value in data set [6] is on record as over 50 fold.

With `C[C@H]([C@H]1CS1)S(=O)(=O)c1ccc(Oc2ccccc2)cc1` [Compound 5c, (2R)-2-(1R-(4-Phenoxyphenylsulfonyl)ethyl)thiirane], the inhibitory constant (Ki) on Human recombinant MMP-2 amounted to 4.1 ± 0.1 µM.

Take `C[C@H]([C@@H]1CS1)S(=O)(=O)c1ccc(Oc2ccccc2)cc1` [Compound 5d, (2S)-2-(1R-(4-Phenoxyphenylsulfonyl)ethyl)thiirane]: the inhibition constant (Ki) on Human recombinant MMP-2 was 0.39 ± 0.03 µM; on Human recombinant MMP-9, 3.3 ± 0.2 µM; in data set [2], 2.1 ± 0.2 µM; in data set [3], over 60 µM; in data set [5], over 60 µM. The figures for the off-rate constant (koff) (at Human recombinant MMP-2 (read-out: 10^4 koff); at Human recombinant MMP-9 (read-out: 10^4 koff); in data set [2] (read-out: 10^4 koff)) were 0.00081 ± 6e-05 s⁻¹, 0.00072 ± 4e-05 s⁻¹ and 0.00095 ± 9e-05 s⁻¹, respectively. Moreover, the kon worked out at 2100 ± 100 M⁻¹ s⁻¹ at Human recombinant MMP-2 (read-out: 10^–3 kon), 220 ± 10 M⁻¹ s⁻¹ on Human recombinant MMP-9 (read-out: 10^–3 kon) and 460 ± 10 M⁻¹ s⁻¹ in data set [2] (read-out: 10^–3 kon). The inhibition at 60 µM in data set [4] (read-out: Inhibition at 60 μM) is 9%. Besides, the “Metabolic stability relative to SB-3CT” value in data set [6] is over 50 fold.

On to `C[C@@H]([C@H]1C[S+]1[O-])S(=O)(=O)c1ccc(Oc2ccccc2)cc1` (stereo partly drawn) [Compound 12, (2R)-2-(1S-(4-Phenoxyphenylsulfonyl)ethyl)thiirane S-oxide], for which the Ki at Human recombinant MMP-2 (MMP-2) is 20 µM. Besides, the “inhibition at a fixed 60 μM inhibitor concentration” value stood at 30% at Human recombinant MMP-9 (MMP-9, 60 μM) and 0% in data set [2] (MMP-14, 60 μM).

As for `CC(C1CS1)S(=O)(=O)c1ccc(Oc2ccc(O)cc2)cc1` (centres unmarked) [Compound 13b], the Ki at Human recombinant MMP-2 (MMP-2) is 0.22 ± 0.09 µM; at Human recombinant MMP-9 (MMP-9), 1.9 ± 0.7 µM; in data set [2] (MMP-14cat), 2.1 ± 0.7 µM. The inhibition in words entry in data set [3] (MMP-1, inhibitor concentrations up to 60 μM) is “Marginal to no inhibition”; in data set [4] (MMP-3, inhibitor concentrations up to 60 μM) it was “Marginal to no inhibition”; in data set [5] (MMP-7, inhibitor concentrations up to 60 μM), “Marginal to no inhibition”.

(Values after PMC2901852 (Chemical biology & drug design, 2009).)
